We go through two compounds from patent US9056922B2, “Chimeric relaxin polypeptides comprising an A and B chain derived from different relaxin family peptides” (HOWARD FLOREY INSTITUTE OF EX[…] MEDICINE, priority 2007, dated 2015).

The target in assay [1] is T1, LGR7 (RXFP1) receptor (Homo sapiens, UniProt Q9HBX9).
T1 construct: expressed in transfected cells; host or cells: HEK-293T
T1 sequence (Q9HBX9 1-757): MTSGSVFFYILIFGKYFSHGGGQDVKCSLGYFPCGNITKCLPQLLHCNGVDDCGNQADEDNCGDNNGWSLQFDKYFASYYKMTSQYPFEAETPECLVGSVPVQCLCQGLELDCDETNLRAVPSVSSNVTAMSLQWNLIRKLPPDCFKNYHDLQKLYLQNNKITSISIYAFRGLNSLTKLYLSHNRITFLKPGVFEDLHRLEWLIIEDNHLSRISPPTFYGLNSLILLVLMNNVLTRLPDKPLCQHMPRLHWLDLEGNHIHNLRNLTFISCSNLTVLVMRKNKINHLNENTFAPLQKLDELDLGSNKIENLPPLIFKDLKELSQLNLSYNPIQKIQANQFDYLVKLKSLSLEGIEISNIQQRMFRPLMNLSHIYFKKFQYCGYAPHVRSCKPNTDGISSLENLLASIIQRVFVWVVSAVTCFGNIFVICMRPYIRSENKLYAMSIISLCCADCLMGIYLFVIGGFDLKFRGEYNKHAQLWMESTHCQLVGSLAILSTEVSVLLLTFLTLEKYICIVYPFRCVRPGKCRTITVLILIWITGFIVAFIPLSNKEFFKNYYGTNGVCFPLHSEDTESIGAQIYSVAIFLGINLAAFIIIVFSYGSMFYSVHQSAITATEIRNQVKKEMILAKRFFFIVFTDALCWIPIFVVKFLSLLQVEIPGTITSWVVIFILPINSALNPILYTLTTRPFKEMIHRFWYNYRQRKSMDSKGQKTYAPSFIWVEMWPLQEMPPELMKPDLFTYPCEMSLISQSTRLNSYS
The assay is described as follows: cAMP reporter gene assay (pCRE-β-galactosidase) in LGR7-expressing cells. The class given is cell-based. How it is done: In the present study the inventors investigated the ability of chimeric polypeptides generated herein (see Example 1) to stimulate cAMP production in cells expressing either the LGR7 or LGR8 receptor.
Receptor cAMP signaling was assessed using a cAMP reporter gene assay. […] Transfected cells were incubated with increasing concentrations of peptides for 6 hrs after which the media was aspirated and the cells frozen at −80° C. overnight. The amount of cAMP-driven β-galactosidase expression in each well was determined by incubating the cells in 25 μl of lysis buffer (10 mM Na2HPO4, pH 8.0, 0.2 mM MgSO4, 0.01 mM MnCl2) for 10 minutes, 100 μl of assay buffer (100 mM Na2HPO4, pH 8.0, 2 mM MgSO4, 0.1 mM MnCl2, 0.5% Triton X-100, 40 mM B-mercaptoethanol) for a further 10 minutes before 25 μL of enzyme substrate solution (1 mg/ml chlorophenol red B-D galactopyranoside (Roche) in 100 mM Na2HPO4, pH 8.0, 2 mM MgSO4, 0.1 mM MnCl2) was added to each well and the plate incubated for 3 h or overnight. The absorbance of each well was determined at 570 nm using a Ceres UV900C plate reader (Bio-Tek Instruments, Vermont, USA).
All experiments were repeated at least three times with triplicate determinations within each assay.
Data are presented as the mean±S.E.M. of […] (number performed shown in parentheses in Table 1) performed in triplicate.
(In general: Reporter assays use an easily measured gene product as a stand-in for the process of interest.)

Assay [2] addresses T2, LGR7 receptor (Homo sapiens, UniProt Q9HBX9).
T2 construct: expressed in transfected cells; host or cells: HEK293T
T2 sequence (Q9HBX9 1-757): T1 sequence (Q9HBX9 1-757)
The assay is described as follows: Whole cell [125I]-labelled H2 relaxin competition binding assay.
Experimental: Briefly, HEK293T cells were plated out into 24-well plates (450,000 cells per well) or 48-well plates (225,000 cells per well), and transfected with pcDNA3.1/zeo plasmid containing the receptor of interest the following day as described above in Example 2. […] Non-specific binding was determined by addition of excess unlabelled relaxin (500 nM). Data were analysed using GraphPad Prism.

Assay [3] has as its target LGR8 (RXFP2) receptor (Homo sapiens, UniProt Q8WXD0). The experiment in a line: cell-based.
Text: Data are presented as the mean±S.E.M. of at least 1 experiment (number performed shown in parentheses in Table 1) performed in triplicate.

Chain of LGR8 (RXFP2) receptor (Q8WXD0 whole entry): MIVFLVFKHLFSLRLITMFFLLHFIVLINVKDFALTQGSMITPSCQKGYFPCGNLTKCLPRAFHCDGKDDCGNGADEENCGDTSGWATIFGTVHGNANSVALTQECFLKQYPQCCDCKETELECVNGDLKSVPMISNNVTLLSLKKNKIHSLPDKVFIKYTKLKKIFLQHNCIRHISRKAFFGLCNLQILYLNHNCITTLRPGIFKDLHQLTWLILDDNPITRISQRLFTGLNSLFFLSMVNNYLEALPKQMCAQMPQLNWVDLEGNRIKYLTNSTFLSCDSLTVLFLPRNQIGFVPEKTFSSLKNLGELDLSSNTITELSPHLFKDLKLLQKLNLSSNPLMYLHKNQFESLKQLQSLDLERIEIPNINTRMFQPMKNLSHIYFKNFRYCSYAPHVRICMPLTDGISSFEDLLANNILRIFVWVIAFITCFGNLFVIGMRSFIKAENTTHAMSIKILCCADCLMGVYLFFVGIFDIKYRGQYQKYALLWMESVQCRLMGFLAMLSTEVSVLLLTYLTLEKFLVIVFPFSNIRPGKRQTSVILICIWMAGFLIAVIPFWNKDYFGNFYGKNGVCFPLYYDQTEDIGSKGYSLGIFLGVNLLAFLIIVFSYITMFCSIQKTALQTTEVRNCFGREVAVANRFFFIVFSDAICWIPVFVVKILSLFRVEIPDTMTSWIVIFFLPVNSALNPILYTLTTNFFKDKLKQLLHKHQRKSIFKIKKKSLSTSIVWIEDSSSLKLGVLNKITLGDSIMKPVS

As a reminder, the EC50 is the concentration giving half of the maximal effect. Low readings indicate greater potency, high ones weaker potency. In general, Ki refers to a measure of affinity in units of concentration, obtained from inhibition or displacement. A lower Ki goes with a stronger hold on the target. Consider `CC[C@H](C)[C@@H]1NC(=O)[C@H](C)NC(=O)[C@H]([C@@H](C)CC)NC(=O)[C@H](CCC(N)=O)NC(=O)[C@H](C)NC(=O)[C@H](CCCNC(=N)N)NC(=O)[C@H](C(C)C)NC(=O)[C@H](CC(C)C)NC(=O)[C@H](CCC(=O)O)NC(=O)[C@H](CCCNC(=N)N)NC(=O)CNC(=O)[C@@H](NC(=O)[C@H](CC(C)C)NC(=O)[C@H](CCCCN)NC(=O)[C@@H](NC(=O)[C@@H](NC(=O)[C@H](CCC(=O)O)NC(=O)[C@H](CCC(=O)O)NC(=O)[C@H](CCSC)NC(=O)[C@H](Cc2c[nH]c3ccccc23)NC(=O)[C@H](CO)NC(=O)[C@@H](N)CC(=O)O)C(C)C)[C@@H](C)CC)CSSC[C@@H]2NC(=O)[C@@H](NC(=O)[C@H](CO)NC(=O)[C@H](CO)NC(=O)[C@H](CO)NC(=O)[C@H](CC(C)C)NC(=O)CNC(=O)[C@H](C)NC(=O)[C@H](CC(C)C)NC(=O)[C@@H](NC(=O)[C@@H](N)CC(=O)O)C(C)C)CSSC[C@H](NC(=O)CNC(=O)[C@H](Cc3c[nH]c4ccccc34)NC(=O)[C@H](CCCCN)NC2=O)C(=O)N[C@@H](CO)C(=O)N[C@@H](CCCCN)C(=O)N[C@@H](CO)C(=O)N[C@@H](CCC(=O)O)C(=O)N[C@@H]([C@@H](C)CC)C(=O)N[C@@H](CO)C(=O)N[C@@H](CO)C(=O)N[C@@H](CC(C)C)C(=O)N[C@H](C(=O)O)CSSC[C@@H](C(=O)NCC(=O)N[C@@H](CCSC)C(=O)N[C@@H](CO)C(=O)N[C@H](C(=O)N[C@@H](Cc2c[nH]c3ccccc23)C(=O)N[C@@H](CO)C(=O)O)[C@@H](C)O)NC1=O` [H2-B/H3-A], for which the EC50 was 7.94 nM in assay [1] and 4570 nM in assay [3]. Moreover, in assay [2], the affinity corresponds to a Ki of 158 nM.

For the compound `CC[C@H](C)[C@@H]1NC(=O)[C@H](C)NC(=O)[C@H]([C@@H](C)CC)NC(=O)[C@H](CCC(N)=O)NC(=O)[C@H](C)NC(=O)[C@H](CCCNC(=N)N)NC(=O)[C@H](C(C)C)NC(=O)[C@H](CC(C)C)NC(=O)[C@H](CCC(=O)O)NC(=O)[C@H](CCCNC(=N)N)NC(=O)CNC(=O)[C@@H](NC(=O)[C@H](CC(C)C)NC(=O)[C@H](CCCCN)NC(=O)[C@@H](NC(=O)[C@@H](NC(=O)[C@H](CCC(=O)O)NC(=O)[C@H](CCC(=O)O)NC(=O)[C@H](CCSC)NC(=O)[C@H](Cc2c[nH]c3ccccc23)NC(=O)[C@H](CO)NC(=O)[C@@H](N)CC(=O)O)C(C)C)[C@@H](C)CC)CSSC[C@@H]2NC(=O)[C@@H](NC(=O)[C@H](Cc3ccc(O)cc3)NC(=O)[C@H](CCCNC(=N)N)NC(=O)[C@H](C)NC(=O)[C@@H]3CCCN3C(=O)[C@H](CC(N)=O)NC(=O)[C@@H](NC(=O)[C@H](C)NC(=O)[C@H](C)NC(=O)[C@H](C)N)[C@@H](C)O)CSSC[C@H](NC(=O)CNC(=O)[C@H](CO)NC(=O)[C@H](CC(C)C)NC2=O)C(=O)N[C@@H]([C@@H](C)O)C(=O)N[C@@H](CCC(N)=O)C(=O)N[C@@H](CCC(N)=O)C(=O)N[C@@H](CC(=O)O)C(=O)N[C@@H](CC(C)C)C(=O)N[C@@H](CC(C)C)C(=O)N[C@@H]([C@@H](C)O)C(=O)N[C@@H](CC(C)C)C(=O)N[C@H](C(=O)N2CCC[C@H]2C(=O)N[C@@H](Cc2ccc(O)cc2)C(=O)O)CSSC[C@@H](C(=O)NCC(=O)N[C@@H](CCSC)C(=O)N[C@@H](CO)C(=O)N[C@H](C(=O)N[C@@H](Cc2c[nH]c3ccccc23)C(=O)N[C@@H](CO)C(=O)O)[C@@H](C)O)NC1=O` [H2-B/INSL3-A], the EC50 in assay [1] is greater than 1000 nM; in assay [3], less than 1000 nM. Moreover, in assay [2], the Ki came out at 617 nM.
